# Measurements published in patent US5200335A (Forschungszentrum Juelich GmbH, priority 1990, dated 1993).
# Entries after “also recorded” stand apart in the source; their conditions may differ. Like-named read-outs stand apart in the source and are kept apart here.
# T1: phenylethanol dehydrogenase (Lentilactobacillus kefiri, UniProt Q6WVP7)
# T1 sequence (Q6WVP7 2-252 limits assumed): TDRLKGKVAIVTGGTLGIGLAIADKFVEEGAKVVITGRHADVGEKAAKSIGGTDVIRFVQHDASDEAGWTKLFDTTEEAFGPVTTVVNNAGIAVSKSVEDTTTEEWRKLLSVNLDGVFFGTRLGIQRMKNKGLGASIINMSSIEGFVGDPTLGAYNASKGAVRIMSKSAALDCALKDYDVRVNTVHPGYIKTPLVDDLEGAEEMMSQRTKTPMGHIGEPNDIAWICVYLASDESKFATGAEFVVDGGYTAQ
# Experiments:
# [1] = target: T1, phenylethanol dehydrogenase; test: Effect of metal cations, inhibitors and SH-protecting reagents on enzyme activity; format: biochemical, Lactobacillus kefir
# Method: Partially purified enzyme (after Mono-Q chromatography, concentrated 20-fold) was employed for the following tests.
# (i) METAL CATIONS: The effect of Mg^2+, […] and Mn^2+ ions was investigated using the assay mixture detailed below. […]
# (ii) INHIBITORS AND SH-[…]: An assay mixture according to Example 2 C(i) without added metal cations but with addition of various inhibitors or SH-[…] at a final concentration of 1 mM was used to determine the effect of certain enzyme inhibitors and SH-[…] on enzyme activity. […] Phenylmethanesulfonyl fluoride was dissolved in acetonitrile to a final concentration of acetonitrile of […]. Acetonitrile alone had no effect on the enzyme activity in control tests.
# [2] = target: T1, phenylethanol dehydrogenase; test: NADPH-dependent reduction: substrate spectrum and dependence of reaction rate on acetophenone/NADPH concentration
# [3] = target: T1, phenylethanol dehydrogenase; test: NADP+-dependent oxidation / reverse reaction with R(+)- or S(-)-phenylethanol; settings: for Vmax: NADP+-dependent oxidations; for Enzyme activity (oxidation): 11 mM alcohol, pH 8.0, NADP+, 340 nm, 30° C.; for Stereospecificity / effect on the enzyme (in words): comparison of mixtures I, II and III
# Method: (§1) The optimum pH for the reverse reaction, the oxidation of phenylethanol, was measured in an analogous manner. (±)-Phenylethanol (22 mM) was dissolved in aliquots of a 0.1M buffer and the pH was adjusted to a range from 4.0 to 10.0.
# (§2) A third mixture containing 22 mM (±)-phenylethanol was employed for comparison. Enzyme activity was measured by photometry at 340 nm at 30° C.
# [4] = substrate: CC(C)O; test: cells, lysate or membranes named; settings: other: NADP+-dependent oxidations; 30.0 °C
# [5] = substrate: CC(O)c1ccccc1; test: cells, lysate or membranes named; settings: other: NADP+-dependent oxidations; 30.0 °C
# Method: as §1, §2
# [6] = substrate: C[C@@H](O)c1ccccc1; test: cells, lysate or membranes named; settings: other: NADP+-dependent oxidations; 30.0 °C
# Method: as §1, §2
# [7] = substrate: NC(=O)c1ccc[n+]([C@@H]2O[C@H](COP(=O)(O)OP(=O)(O)OC[C@H]3O[C@@H](n4cnc5c(N)ncnc54)[C@H](OP(=O)(O)O)[C@@H]3O)[C@@H](O)[C@H]2O)c1; test: cells, lysate or membranes named; settings: other: NADP+-dependent oxidations; 30.0 °C
# Method: as §1, §2
# [8] = substrate: CC(=O)C(C)(C)C; test: purified protein, by the assay type; settings: pH 7.0; 30.0 °C
# [9] = substrate: CC(=O)CCc1ccccc1; test: purified protein, by the assay type; settings: other: NADPH-dependent reductions, pH 7.0, 0.2 mM NADPH, partially purified enzyme, 30.0 °C
# [10] = substrate: CC(=O)c1ccc(Br)cc1; test: purified protein, by the assay type; settings: other: NADPH-dependent reductions, pH 7.0, 0.2 mM NADPH, partially purified enzyme, 30.0 °C
# [11] = substrate: CC(=O)c1ccc(Cl)cc1; test: purified protein, by the assay type; settings: pH 7.0; 30.0 °C
# [12] = substrate: CC(=O)c1ccccc1; test: purified protein, by the assay type; settings: other: acetophenone 50-7100 μM, 0.2 mM NADPH, pH 7.0, 30° C.
# [13] = substrate: CC(C)=O; test: purified protein, by the assay type; settings: other: NADPH-dependent reductions, pH 7.0, 0.2 mM NADPH, partially purified enzyme, 30.0 °C
# [14] = substrate: CCC(=O)c1ccccc1; test: purified protein, by the assay type; settings: pH 7.0; 30.0 °C
# [15] = substrate: CCCCCC(=O)CC; test: purified protein, by the assay type; settings: other: NADPH-dependent reductions, pH 7.0, 0.2 mM NADPH, partially purified enzyme, 30.0 °C
# [16] = substrate: CCCCCCC(C)=O; test: purified protein, by the assay type; settings: other: NADPH-dependent reductions, pH 7.0, 0.2 mM NADPH, partially purified enzyme, 30.0 °C
# [17] = substrate: NC(=O)C1=CN([C@@H]2O[C@H](COP(=O)(O)OP(=O)(O)OC[C@H]3O[C@@H](n4cnc5c(N)ncnc54)[C@H](OP(=O)(O)O)[C@@H]3O)[C@@H](O)[C@H]2O)C=CC1; test: purified protein, by the assay type; settings: other: NADPH 13 to 380 μM, 5.3 mM acetophenone, pH 7.0, 30° C.
# [18] = pH 7; read-out: Activity remaining
# [19] = NADPH-dependent reductions, […]
# [20] = NADPH-dependent reductions, pH 7.0, 0.2 mM NADPH, partially purified enzyme
# [21] = pH 7, read-out: Activity remaining
# [22] = addition at final concentration 1 mM; 5.5 mM acetophenone, 0.2 mM NADPH, pH 7.0; partially purified enzyme
molecule,measurement,setting,value
O[C@H](CS)[C@H](O)CS (racemic) [Dithiothreitol],remaining activity at 1000 µM,[1]; [18],95%
"c1cnc2c(c1)ccc1cccnc12 [1,10-Phenanthroline]",Effect on enzyme activity (in words),[1],virtually no inhibition
same,remaining activity at 1000 µM,[1]; [18],99%
"CC(=O)C(=O)c1ccccc1 [1-Phenyl-1,2-propanedione]",Vmax,[2]; [19],70%
same,Reduction by the enzyme (in words),[2]; in the presence of NADPH,capable of catalyzing the reduction; also recorded: capable of reducing
"c1ccc(-c2ccccn2)nc1 [2,2'-Dipyridine]",Effect on enzyme activity (in words),[1],virtually no inhibition
same,remaining activity at 1000 µM,[1]; [18],106%
CC(=O)c1ccc(Br)cc1 [4-Bromoacetophenone],Vmax,[2]; [19],101%
same,Reduction by the enzyme (in words),"[2]; in the presence of NADPH, listed as p-bromoacetophenone",capable of catalyzing the reduction; also recorded: capable of reducing
CC(=O)c1ccc(Cl)cc1 [4-Chloroacetophenone],Vmax,[2]; [19],93%
same,Reduction by the enzyme (in words),"[2]; in the presence of NADPH, listed as p-chloroacetophenone",capable of catalyzing the reduction; also recorded: capable of reducing
CC(=O)CCc1ccccc1 [4-Phenyl-2-butanone],Vmax,[2]; [20],90%
same,Reduction by the enzyme (in words),[2]; in the presence of NADPH,capable of catalyzing the reduction; also recorded: capable of reducing
CC(C)=O [Acetone],Vmax,[2]; [19],96%
same,Reduction by the enzyme (in words),[2]; in the presence of NADPH,capable of catalyzing the reduction; also recorded: capable of reducing
CC(=O)c1ccccc1 [Acetophenone],Vmax,[2]; [20],100%
same,Substrate concentration at maximum enzyme activity,"[2]; acetophenone conversion, 0.2 mM NADPH, pH 7.0, 30° C.",5.3 mM
same,Maximum activity,"[2]; at 5.3 mM acetophenone, 0.2 mM NADPH",18.6 U/ml
same,Reduction by the enzyme (in words),[2]; in the presence of NADPH,capable of catalyzing the reduction; also recorded: capable of reducing
same,Excess substrate inhibition,[2]; up to an acetophenone concentration of 10.6 mM,no excess substrate inhibition
O=Cc1ccccc1 [Benzaldehyde],Vmax,[2]; [19],10%
O=C(O)CN(CCN(CC(=O)O)CC(=O)O)CC(=O)O [EDTA],Effect on enzyme activity (in words),[1],completely inhibited; also recorded: rapidly inactivated; also recorded: rapid inactivation
same,remaining activity at 1000 µM,[1]; [21],0%
CCCCCC(=O)CC [Ethyl pentyl ketone],Vmax,[2]; [20],66%
same,Reduction by the enzyme (in words),[2]; in the presence of NADPH,capable of catalyzing the reduction; also recorded: capable of reducing
N[C@@H](CCC(=O)N[C@@H](CS)C(=O)NCC(=O)O)C(=O)O [Glutathione],remaining activity at 1000 µM,[1]; [21],99%
NC(=O)CI [Iodoacetamide],Effect on enzyme activity (in words),[1],relatively weak inhibition
same,remaining activity at 1000 µM,[1]; [18],90%
CC(C)O [Isopropanol],Vmax,[3],18%
"CC(=O)C=C(C)C [Mesityl oxide, 4-methyl-3-pentene-2-one]",Vmax,[2]; [19],12%
CC(=O)c1ccc2ccccc2c1 [Methyl 2-naphthyl ketone],Vmax,[2]; [20],11%
CCCCCCC(C)=O [Methyl hexyl ketone],Vmax,[2]; [20],91%
same,Reduction by the enzyme (in words),[2]; in the presence of NADPH,capable of catalyzing the reduction; also recorded: capable of reducing
[Cl-].[Cl-].[Mg+2] [MgCl2],Activity remaining,[1]; [22],132%
"C[C@H](O)c1ccccc1 [Mixture II, S(-)-phenylethanol]",Enzyme activity (oxidation),[3],0 U/ml
same,Stereospecificity / effect on the enzyme (in words),[3],inhibits the enzyme
[Cl][Mn][Cl] [MnCl2],Activity remaining,[1]; [22],114%
CCN1C(=O)C=CC1=O [N-Ethylmaleimide],Effect on enzyme activity (in words),[1],relatively weak inhibition
same,remaining activity at 1000 µM,[1]; [18],81%
NC(=O)C1=CN([C@@H]2O[C@H](COP(=O)(O)OP(=O)(O)OC[C@H]3O[C@@H](n4cnc5c(N)ncnc54)[C@H](OP(=O)(O)O)[C@@H]3O)[C@@H](O)[C@H]2O)C=CC1 [NADPH],NADPH concentration at maximum enzyme activity,"[2]; 5.3 mM acetophenone, pH 7.0, 30° C.",190 µM
same,Vmax,[2]; [20],100%
same,Maximum enzyme activity,"[2]; at 190 μM NADPH, 5.3 mM acetophenone",16.9 U/ml
NC(=O)c1ccc[n+]([C@@H]2O[C@H](COP(=O)(O)OP(=O)(O)OC[C@H]3O[C@@H](n4cnc5c(N)ncnc54)[C@H](OP(=O)(O)O)[C@@H]3O)[C@@H](O)[C@H]2O)c1 [NADP^+],Vmax,[3],17%
O=S(=O)(F)Cc1ccccc1 [Phenylmethanesulfonyl fluoride],Activity remaining,[1]; [22],94%
CC(=O)C(C)(C)C [Pinacolone],Reduction by the enzyme (in words),[2],capable of catalyzing the reduction; also recorded: capable of reducing
same,Vmax,[2]; pH 7,53%
CCC(=O)c1ccccc1 [Propiophenone],Vmax,[2]; [19],43%
same,Reduction by the enzyme (in words),[2]; in the presence of NADPH,capable of catalyzing the reduction; also recorded: capable of reducing
C[C@@H](O)c1ccccc1 [R(+)-Phenylethanol],Enzyme activity (oxidation),[3],3.5 U/ml
same,Vmax,[3],11%
same,Stereospecificity / effect on the enzyme (in words),[3],highly specific
[Cl-].[Cl-].[Zn+2] [ZnCl2],Activity remaining,[1]; [22],114%
O=C(O)c1cc[c]([Hg][OH])cc1 [p-Hydroxymercurybenzoate],Effect on enzyme activity (in words),[1],relatively weak inhibition
same,Activity remaining,"[1]; addition at final concentration 0.1 mM; 5.5 mM acetophenone, 0.2 mM NADPH, pH 7.0; partially purified enzyme",92%
(±)-Methylcyclohexanone,Km,[2]; [20],70000 µM
same,Vmax,[2]; [20],109%
same,Reduction by the enzyme (in words),[2]; in the presence of NADPH,capable of catalyzing the reduction; also recorded: capable of reducing
Triton X-100,Activity remaining,[1]; [22],94%
phenylethanol dehydrogenase (Lentilactobacillus kefiri) (protein) TDRLKGKVAIVTGGTLGIGLAIADKFVEEGAKVVITGRHADVGEKAAKSIGGTDVIRFVQHDASDEAGWTKLFDTTEEAFGPVTTVVNNAGIAVSKSVEDTTTEEWRKLLSVNLDGVFFGTRLGIQRMKNKGLGASIINMSSIEGFVGDPTLGAYNASKGAVRIMSKSAALDCALKDYDVRVNTVHPGYIKTPLVDDLEGAEEMMSQRTKTPMGHIGEPNDIAWICVYLASDESKFATGAEFVVDGGYTAQ,Km,[4],117 µM
same,Km,[5],4300 µM
same,Km,[6],3500 µM
same,Km,[7],190 µM
same,Km,[8],3380 µM
same,Km,[9],9400 µM
same,Km,[10],372 µM
same,Km,[11],390 µM
same,Km,[12],600 µM
same,Km,[13],37900 µM
same,Km,[14],2740 µM
same,Km,[15],681 µM
same,Km,[16],251 µM
same,Km,[17],140 µM
